Measurements as given in ChEMBL document CHEMBL3885881, “DrugMatrix”.

Organism: Rattus norvegicus
Assay: DrugMatrix - Regimen: Daily Repeat
Type: toxicity, organism-based, Sprague-Dawley
Design: regimen Daily Repeat, gender Male, age 6-8 weeks
Details: in vivo, po, route oral GAVAGE, vehicle 100 % WATER; for ABSOLUTE BASOPHIL / ABSOLUTE EOSINOPHIL / ABSOLUTE LYMPHOCYTE / ABSOLUTE MONOCYTE / ABSOLUTE SEGMENTED NEUTROPHIL / BASOPHIL / EOSINOPHIL / ERYTHROCYTE COUNT / HEMATOCRIT / HEMOGLOBIN / LEUKOCYTE COUNT / LYMPHOCYTE / MEAN CORPUSCULAR HEMOGLOBIN / MEAN CORPUSCULAR HEMOGLOBIN CONCENTRATION / MEAN CORPUSCULAR VOLUME / MONOCYTE / NEUTROPHIL / NUCLEATED RED BLOOD CELLS / PLATELET COUNT: tissue Blood; for ALANINE AMINOTRANSFERASE / ALBUMIN / ALKALINE PHOSPHATASE / ASPARTATE AMINOTRANSFERASE / BLOOD UREA NITROGEN / CARBON DIOXIDE / CHLORIDE / CHOLESTEROL / CREATINE PHOSPHOKINASE / CREATININE / GLUCOSE / LACTATE DEHYDROGENASE / LIPASE / PHOSPHORUS / SODIUM / TOTAL BILIRUBIN / TOTAL PROTEIN / URIC ACID: tissue Plasma
[1] = 0 mg/kg, 72 h, dose level Control, time 3 day
[2] = 0 mg/kg, 120 h, dose level Control, time 5 day
[3] = 100 mg/kg, 72 h, dose level Low, time 3 day

In the case of `CCN(CC)C(=S)SSC(=S)N(CC)CC`, the “ABSOLUTE BASOPHIL” value [1] is reported as 0 CELLS/uL, the “ABSOLUTE EOSINOPHIL” value [1] is reported as 58.83 CELLS/uL and the “ABSOLUTE LYMPHOCYTE” value [1] is reported as 11823.5 CELLS/uL. The “ABSOLUTE MONOCYTE” value [1] was 169 CELLS/uL, the “ABSOLUTE SEGMENTED NEUTROPHIL” value [1] was 815.33 CELLS/uL and the BASOPHIL [1] was 0%. The EOSINOPHIL [1] was 0.5%, the “ERYTHROCYTE COUNT” value [1] was 5.52 x10E6/uL and the HEMATOCRIT [1] was 35.77%. The HEMOGLOBIN [1] was 14.28 G/DL, the “LEUKOCYTE COUNT” value [1] was 12.87 x10E3/uL and the LYMPHOCYTE [1] was 91.67%. For the same compound, the “MEAN CORPUSCULAR HEMOGLOBIN” value [1] was 25.92 pg, the “MEAN CORPUSCULAR HEMOGLOBIN CONCENTRATION” value [1] was 39.95 G/DL and the “MEAN CORPUSCULAR VOLUME” value [1] was 64.85 fL. The MONOCYTE [1] was 1.33%, the NEUTROPHIL [1] was 6.5% and the “NUCLEATED RED BLOOD CELLS” value [1] was 0 /100WBC. For the same compound, the “PLATELET COUNT” value [1] was 1246.17 x10E3/uL, the “ALANINE AMINOTRANSFERASE” value [1] was 66 u/L and the ALBUMIN [1] was 4.25 G/DL. The “ALKALINE PHOSPHATASE” value [1] was 416 u/L, the “ASPARTATE AMINOTRANSFERASE” value [1] was 106.17 u/L and the “BLOOD UREA NITROGEN” value [1] was 12.67 mg/dL. The “CARBON DIOXIDE” value [1] was 31.83 mmol/L, the CHLORIDE [1] was 102.5 MEQ/L and the CHOLESTEROL [1] was 69 mg/dL. For the same compound, the “CREATINE PHOSPHOKINASE” value [1] was 601.83 u/L, the CREATININE [1] was 0.18 mg/dL and the GLUCOSE [1] was 154.5 mg/dL. For the same compound, the “LACTATE DEHYDROGENASE” value [1] was 301.83 u/L, the LIPASE [1] was 11.17 u/L and the PHOSPHORUS [1] was 12.08 mg/dL. The SODIUM [1] was 145.2 MEQ/L, the “TOTAL BILIRUBIN” value [1] was 0.17 mg/dL and the “TOTAL PROTEIN” value [1] was 6.1 G/DL. The “URIC ACID” value [1] was 1.57 mg/dL, the “ABSOLUTE BASOPHIL” value [2] was 0 CELLS/uL and the “ABSOLUTE EOSINOPHIL” value [2] was 19.33 CELLS/uL. The “ABSOLUTE LYMPHOCYTE” value [2] was 12577.83 CELLS/uL, the “ABSOLUTE MONOCYTE” value [2] was 106.33 CELLS/uL and the “ABSOLUTE SEGMENTED NEUTROPHIL” value [2] was 896.5 CELLS/uL. For the same compound, the BASOPHIL [2] was 0%, the EOSINOPHIL [2] was 0.17% and the “ERYTHROCYTE COUNT” value [2] was 5.84 x10E6/uL. The HEMATOCRIT [2] was 36.88%, the HEMOGLOBIN [2] was 14.48 G/DL and the “LEUKOCYTE COUNT” value [2] was 13.6 x10E3/uL. The LYMPHOCYTE [2] was 92.17%, the “MEAN CORPUSCULAR HEMOGLOBIN” value [2] was 24.85 pg and the “MEAN CORPUSCULAR HEMOGLOBIN CONCENTRATION” value [2] was 39.3 G/DL. The “MEAN CORPUSCULAR VOLUME” value [2] was 63.23 fL, the MONOCYTE [2] was 0.83% and the NEUTROPHIL [2] was 6.83%. For the same compound, the “NUCLEATED RED BLOOD CELLS” value [2] was 0 /100WBC, the “PLATELET COUNT” value [2] was 1223.5 x10E3/uL and the “ALANINE AMINOTRANSFERASE” value [2] was 55.33 u/L. For the same compound, the ALBUMIN [2] was 4.08 G/DL, the “ALKALINE PHOSPHATASE” value [2] was 355.5 u/L and the “ASPARTATE AMINOTRANSFERASE” value [2] was 87.67 u/L. The “BLOOD UREA NITROGEN” value [2] was 15.33 mg/dL, the “CARBON DIOXIDE” value [2] was 33.83 mmol/L and the CHLORIDE [2] was 99.67 MEQ/L. The CHOLESTEROL [2] was 72.17 mg/dL, the “CREATINE PHOSPHOKINASE” value [2] was 268.33 u/L and the CREATININE [2] was 0.15 mg/dL. For the same compound, the GLUCOSE [2] was 152.5 mg/dL, the “LACTATE DEHYDROGENASE” value [2] was 212.67 u/L and the LIPASE [2] was 10.83 u/L. For the same compound, the PHOSPHORUS [2] was 11.65 mg/dL, the SODIUM [2] was 142.43 MEQ/L and the “TOTAL BILIRUBIN” value [2] was 0.23 mg/dL. For the same compound, the “TOTAL PROTEIN” value [2] was 6.07 G/DL, the “URIC ACID” value [2] was 1.7 mg/dL and the “ABSOLUTE BASOPHIL” value [3] was 0 CELLS/uL. The “ABSOLUTE EOSINOPHIL” value [3] was 157.33 CELLS/uL, the “ABSOLUTE LYMPHOCYTE” value [3] was 16865.67 CELLS/uL and the “ABSOLUTE MONOCYTE” value [3] was 329 CELLS/uL. The “ABSOLUTE SEGMENTED NEUTROPHIL” value [3] was 2381.33 CELLS/uL, the BASOPHIL [3] was 0% and the EOSINOPHIL [3] was 0.67%. The “ERYTHROCYTE COUNT” value [3] was 5.56 x10E6/uL, the HEMATOCRIT [3] was 35.37% and the HEMOGLOBIN [3] was 14.23 G/DL. For the same compound, the “LEUKOCYTE COUNT” value [3] was 19.73 x10E3/uL, the LYMPHOCYTE [3] was 85.67% and the “MEAN CORPUSCULAR HEMOGLOBIN” value [3] was 25.63 pg. The “MEAN CORPUSCULAR HEMOGLOBIN CONCENTRATION” value [3] was 40.27 G/DL, the “MEAN CORPUSCULAR VOLUME” value [3] was 63.63 fL and the MONOCYTE [3] was 1.67%. The NEUTROPHIL [3] was 12%, the “NUCLEATED RED BLOOD CELLS” value [3] was 0 /100WBC and the “PLATELET COUNT” value [3] was 1201.33 x10E3/uL. For the same compound, the “ALANINE AMINOTRANSFERASE” value [3] was 56 u/L, the ALBUMIN [3] was 3.87 G/DL and the “ALKALINE PHOSPHATASE” value [3] was 264.33 u/L. For the same compound, the “ASPARTATE AMINOTRANSFERASE” value [3] was 73.33 u/L, the “BLOOD UREA NITROGEN” value [3] was 11.67 mg/dL and the “CARBON DIOXIDE” value [3] was 31.67 mmol/L. The CHLORIDE [3] was 102.33 MEQ/L, the CHOLESTEROL [3] was 84.33 mg/dL and the “CREATINE PHOSPHOKINASE” value [3] was 223.33 u/L. For the same compound, the CREATININE [3] was 0.28 mg/dL, the GLUCOSE [3] was 140.67 mg/dL and the “LACTATE DEHYDROGENASE” value [3] was 124 u/L. For the same compound, the LIPASE [3] was 14.33 u/L, the PHOSPHORUS [3] was 11.63 mg/dL and the SODIUM [3] was 144.57 MEQ/L. For the same compound, the “TOTAL BILIRUBIN” value [3] was 0.1 mg/dL, the “TOTAL PROTEIN” value [3] was 5.7 G/DL and the “URIC ACID” value [3] was 1.23 mg/dL.
